{"source": "patent US9463189B2", "about": "(BPV Holdings, LLC, priority 2007, dated 2016)", "format_in_all_cases": "in vivo, C57B1/6J mice", "key": {"NASH mice [1]": {"test_system": "NASH mice", "experiment": "Glucose tolerance testing (ipGTT) in NASH mice", "experimental": "Following 120-150 days on the HFD, mice in the NASH group were treated with Compound 2 (5 or 10 mg/Kg/day) or vehicle (10% Encapsin) for 42 days. Fasting and post prandial (PP) blood draws were taken at the beginning of the study (compound treatment) to identify and confirm the NASH group and during the study to evaluate various pharmacological responses. Since the NASH mice are severely hyperinsulinemic compared to NC mice, glucose tolerance testing (GTT, measures peripheral insulin resistance) was performed to evaluate the effect of Compound 2 on improvement of peripheral insulin sensitivity. […] Body weight and food intake was measured throughout the study.\nMice were then fasted overnight at 1700 hours for an experiment the following morning at 9:30 am. The animals were restrained in a towel to reduce handling stress and blood collection was from tail nick. Heat lamps were turned on 5 minutes prior to blood draws to warm animals slightly facilitating the flow of blood resulting in a decreased collection time. Blood glucose was measured using an Accu-check Compact Monitoring Kit (Roche Diagnostics, Indianapolis, Ind., Cat #3149137). Blood was also collected (˜100 μl) into EDTA microvettes (Sarstedt, Newton, N.C., Cat#16.444.100) for insulin ELISA analysis. After baseline blood collection, 2 g/kg Dextrose (Hospira, Lake Forest, Ill., NDC#0409-6648-02) was administered by intraperitoneal injection followed by glucose readings and blood draws (˜50 ul) at time points of 15, 30, 60, and 120 minutes post glucose challenge. Mice were kept in their home cages in between collection intervals.\n(§1) Insulin fasting plasma samples were tested using Mercodia ultra sensitive mouse insulin ELISA: 2.5 μL EDTA plasma, ALPCO Diagnostics, Uppsala, Sweden, Cat #08-10-1150-99, LOQ (0.22-7.1 μg/L). Mouse JE/MCP-1 post prandial samples were collected at sacrifice. 12.5 μL EDTA plasma, R & D Systems, Minneapolis, Minn., Cat # MFE00, LOQ (15.6-1000 pg/mL)."}, "NASH mice [2]": {"test_system": "NASH mice", "experiment": "Serum transaminases AST and ALT in HFD-induced NASH mice (clinical chemistry panel)", "source_text": "(§2) Early Steatosis Model: C57B1/6J mice (22-39 days old) mice were used for the study. Mice were fed normal chow food (Lab Diet, 5P14Prolab Animal Diet, PMI Nutritional International, Brentwood, Mo., Cat# RMH 2500) or 58% high fat diet (HFD, 58 kcal % fat and corn starch with purple dye, Research Diets, New Brunswick, N.J., Cat# D12330 equivalent to Western diet) for 120-150 days. […] This group is referred to as the HFD-low body group in FIG. 1A (insulin & liver fat accumulation˜normal). On the other hand, one fifth of the mice gained 60-70% higher body weight (compared to normal chow fed mice) while on the same HFD diet (NASH group, very high insulin and liver fat) further shown in FIG. 1A. The majority of the mice (three fifths) gained body weight as expected on the HFD (30-40% higher than the normal chow fed mice) and is referred to as the DIO group (normal to moderately high insulin and liver fat accumulation) as shown in FIG. 1A. Control animals (n=5) representative of the HFD-low body weight and the NASH groups were sacrificed prior to starting the rest of the animals on treatment with the Compound 2 (5 or 10 mg/Kg/day). Liver, white adipose and muscle from the sacrificed mice were collected for histology performed on the liver tissue.\n(§3) Following 120-150 days on the HFD, mice in the NASH group were treated with Compound 2 (5 or 10 mg/Kg/day) or vehicle (10% Encapsin) for 42 days. Fasting and post prandial (PP) blood draws were taken at the beginning of the study (compound treatment) to identify and confirm the NASH group and during the study to evaluate various pharmacological responses. Since the NASH mice are severely hyperinsulinemic compared to NC mice, glucose tolerance testing (GTT, measures peripheral insulin resistance) was performed to evaluate the effect of Compound 2 on improvement of peripheral insulin sensitivity. Treatment was administered for 42 days (separate experiments). Body weight and food intake was measured throughout the study.\nTail blood was collected into EDTA capillary tubes (Becton, Dickinson and Company, Franklin Lakes, N.J., Cat #365973). Upon sacrifice, blood was collected by cardiac puncture using a 1 mL Syringe Tuberculin Slip Tip (Becton, Dickinson & Company, Cat #309602) and B-D25G 5/8 needle (Becton Dickinson, Franklin Lakes, N.J., Cat #305122) and saved into Microtainer brand tube with EDTA (Becton, Dickinson and Company, Cat #365973). The blood was spun for 8 minutes at 8500 rpm at 4° C. (Eppendorf, Centrifuge 5415R, New York, N.Y.). Plasma was collected and stored at −20° C. for further analyses\n80 μL EDTA plasma was diluted with 80 μL Dulbecco's phosphate buffered saline (Gibco, Grand Island, N.Y., Cat #14040-133) and analyzed in Olympus AU600 (Olympus, London, UK) for the following endpoints. The lower and upper limit ranges were according to the assay values provided by the JAS Diagnostics, INC (Miami, Fla.). • Glucose (LL 94-116, UL 297-353 mg/dL, Cat # JAS GLU2-125) • Triglycerides (LL 46-102, UL 128-168 mg/dL, Cat # TRI2-125) • ALT/GPT (LL 10-34, UL 64-114 U/L, Cat # JAS ALT2-125) • AST/GOT (LL 18-46, UL 121-187 U/L, Cat # JAS AST2-125) • Multi-Chemistry calibrator (Albumin: 3.9 g/dL, Cholesterol: 212 mg/dL, • Creatinine: 4.4 mg/dL, Glucose: 220 mg/dL, Triglycerides: 116 mg/dL, Cat # JAS CAL1-5) • Multi-Chemistry control level 1 (Range: See above for each constituent, Cat # JAS CON1-5) • Multi-Chemistry control level 2 (Range: See above for each constituent, Cat # JAS CON2-5)"}, "MCP-1": {"test_system": "MCP-1", "experiment": "MCP-1 in plasma and liver lysates (immunoassay)", "experimental": "as §3, §1"}, "[3]": {"experiment": "Body weight loss in NASH mice", "settings": "oral administration, p<0.05 vs. vehicle", "source_text": "as §2, with “Liver, white adipose and muscle from the sacrificed mice were collected for histology performed on the liver tissue.” left out\nFollowing 120-150 days on the HFD, mice in the NASH group were treated with Compound 2 (5 or 10 mg/Kg/day) or vehicle (10% Encapsin) for 42 days. […] Body weight and food intake was measured throughout the study."}, "[4]": {"settings": "oral administration, NASH mice, p<0.05 vs. vehicle"}}, "note": "Counter-ions that a name gives are not always drawn.", "data": [{"smiles": "C[C@@H]1CN(Cc2ccc(OC(F)(F)F)cc2)C[C@H](C)N1S(=O)(=O)c1cccc2c1C[C@@H](C(=O)O)C2", "note": "[Compound 2, (S)-4-[cis-2,6-Dimethyl-4-(4-trifluoromethoxy-benzyl)-piperazine-1-sulfonyl]-indan-2-carboxylic acid tosylate]", "values": [{"measurement": "insulin secretion during ipGTT", "setting": "NASH mice [1]; 21 days, 10 mg/Kg/day, compared to vehicle-treated animals", "result": "reduced insulin secretion"}, {"measurement": "peripheral insulin resistance", "setting": "NASH mice [1]; 21 days, 10 mg/Kg/day, ipGTT, compared to vehicle-treated animals", "result": "improved peripheral insulin resistance"}, {"measurement": "glucose disposal", "setting": "NASH mice [1]; [4]", "result": "improved glucose disposal"}, {"measurement": "insulin sensitivity", "setting": "NASH mice [1]; [4]", "result": "improved insulin sensitivity"}, {"measurement": "reduction in AST compared to the vehicle group", "setting": "NASH mice [2]; 42 days of 5 mg/kg/day, p<0.02", "result": 43, "unit": "%"}, {"measurement": "reduction in ALT compared to the vehicle group", "setting": "NASH mice [2]; 42 days of 5 mg/kg/day, p<0.05", "result": 43, "unit": "%"}, {"measurement": "ALT serum level, treated group", "setting": "NASH mice [2]; 42 days of 5 mg/kg/day, vehicle 108±15, in U/L", "result": "62±13"}, {"measurement": "AST serum level, treated group", "setting": "NASH mice [2]; 42 days of 5 mg/kg/day, vehicle 201±23, in U/L", "result": "115±19"}, {"measurement": "levels of serum transaminases AST and ALT", "setting": "NASH mice [2]; oral administration, summary", "result": "reduced levels"}, {"measurement": "reduction of MCP-1 levels in plasma, treated vs. untreated mice", "setting": "MCP-1; 42 days of 5 mg/kg/day, p<0.006", "result": 34, "unit": "%"}, {"measurement": "reduction of MCP-1 levels in the liver lysates, treated vs. untreated mice", "setting": "MCP-1; 42 days of 5 mg/kg/day, trend, p=0.08", "result": 31, "unit": "%"}, {"measurement": "levels of plasma MCP-1", "setting": "MCP-1; [4]", "result": "normalized levels"}, {"measurement": "weight loss", "setting": "[3]", "result": "increased weight loss"}]}]}
